From patent publication EP0561850B1, “7-SUBSTITUTED-6-FLUORO-1,4-DIHYDRO-4-OXO-QUINOLINE-3-CARBOXYLIC ACID COMPOUNDS USEFUL AS ANTIBACTERIAL AGENTS” (priority 1990, dated 1992)
≈ marks a conversion by molar mass, not a printed value. Structures can show the parent of a compound that is named as a salt. Where two headings read alike, the source gives them in different places.

Legend:
[1] = test system: Staphylococcus aureus S-127; experiment: In vitro antimicrobial activity against aerobes, broth microdilution (NCCLS 1985); assay type: cell-based; conditions: S127, read after 16-18 hours
Method: (§1) For aerobic microorganisms, a cation supplemented Mueller Hinton Broth (BBL) was used whereas the Anaerobe Broth MIC (Difco) was used for anaerobic microorganisms. An agar Dilution method was employed for certain aerobic microorganisms using Mueller Hinton II Agar (BBL) and a Cathra multipoint inoculating device which delivered 10^4 cfu/spot of the inoculum on the agar surface. MICs were read after 16-18 hours and 48 hours of incubation in case of microbes growing aerobically and anaerobically respectively.

[2] = test system: Methicillin Resistant S. aureus (MRSAs); experiment: In vitro antimicrobial activity against methicillin resistant S. aureus; assay type: cell-based; conditions: Staphylococcus aureus; MRSA (6 C.I.), C.I. = Clinical Isolates
Method: as §1

[3] = test system: Peptostreptococcus asaccharolyticus AN-16; experiment: In vitro antimicrobial activity against anaerobes, broth microdilution; assay type: cell-based; conditions: Peptoniphilus asaccharolyticus, AN16; Peptostreptococcus asaccharolyticus AN-16; anaerobes; read after 48 hours; read-out: MIC
From the text: as §1, with “The compounds of the invention display antibacterial activity when tested by the broth microdilution method as described in the NCCLS publications M7-A, M11-A and M17-P of the year 1985. For” for “For”
(§2) By use of the above method, the following minimum inhibitory concentration values (MICs in µg/ml) were obtained: Table 1, against microbes growing aerobically; Table 2, against microbes growing anaerobically; Table 3, against methicillin resistant Staphylococcus aureus and quinoline resistant-methicillin resistant Staphylococcus aureus.

[4] = test system: Fusobacterium mortiferum AN-13; experiment: as above; assay type: cell-based; conditions: AN13; Fusobacterium mortiferum AN-13; anaerobes; read after 48 hours; read-out: MIC
From the text: as §1, with “The compounds of the invention display antibacterial activity when tested by the broth microdilution method as described in the NCCLS publications M7-A, M11-A and M17-P of the year 1985. For” for “For”
as §2

[5] = test system: Streptococcus intermedius AN-19; experiment: as above; assay type: cell-based; conditions: AN19; Streptococcus intermedius AN-19; anaerobes; read after 48 hours; read-out: MIC
From the text: as §1, with “The compounds of the invention display antibacterial activity when tested by the broth microdilution method as described in the NCCLS publications M7-A, M11-A and M17-P of the year 1985. For” for “For”
as §2

Bacteroides fagilis AN-2 = experiment: as above; assay type: cell-based; conditions: AN2; Bacteroides fagilis AN-2; anaerobes; read after 48 hours; read-out: MIC
From the text: as §1, with “The compounds of the invention display antibacterial activity when tested by the broth microdilution method as described in the NCCLS publications M7-A, M11-A and M17-P of the year 1985. For” for “For”
as §2

[6] = test system: Propionobacterium acne AN-17; experiment: as above; assay type: cell-based; conditions: Propionobacterium acne AN-17; anaerobes; read after 48 hours; read-out: MIC
From the text: as §1, with “The compounds of the invention display antibacterial activity when tested by the broth microdilution method as described in the NCCLS publications M7-A, M11-A and M17-P of the year 1985. For” for “For”
as §2

[7] = test system: Quinoline Resistant MRSAs (QRMRSAs); experiment: In vitro antimicrobial activity against quinoline resistant MRSA; assay type: cell-based; conditions: Staphylococcus aureus; QRMRSA (8 C.I.), C.I. = Clinical Isolates
Method: as §1

[8] = test system: Klebsiella pneumoniae S-80; experiment: Microbroth dilution (MHB) method, NCCLS M7-A2; assay type: cell-based; conditions: Kp S-80, MHB, inoculum 5 x 10^5 cfu/ml, 35 °C/18 hr
Method: (§3) The test organisms were obtained from ATCC and clinical laboratories. The 96-well microtitre plates containing […] of serially diluted test compounds in Mueller Hinton Broth (MHB) (conc. range 64-0.03 µg/ml) were inoculated with […] of bacterial suspension in MHB so that an inoculum size of 5 x 10^5 cfu/ml was achieved.
(§4) EC. (S- 63): Eschericia coli Ecl. (S- 130): Enterobacter cloacae Pa. (S- 67): Pseudomonas aeruginosa Kp. (S- 80): Klebsiella pneumoniae Pr.
(§5) Microbroth Dilution (MHB) method; Inoculum, 5 x 10^5 cfu/ml; Incubation 35 °C/18 hr

[9] = test system: Enterobacter cloacae S-130; experiment: Microbroth dilution (MHB) method, NCCLS M7-A2; assay type: cell-based; conditions: 35 °C/18 hr
Method: as §3, §4, §5

[10] = test system: Staphylococcus aureus S-127; experiment: Microbroth dilution (MHB) method, NCCLS M7-A2; assay type: cell-based; conditions: 35 °C/18 hr
Method: as §3, §4, §5

Eschericia coli S-63 = experiment: Microbroth dilution (MHB) method, NCCLS M7-A2; assay type: cell-based; conditions: Ec S-63, inoculum 5 x 10^5 cfu/ml, 35 °C/18 hr
Method: as §3, §4, §5

[11] = test system: Pseudomonas aeruginosa S-67; experiment: Microbroth dilution (MHB) method, NCCLS M7-A2; assay type: cell-based; conditions: Pa S-67, MHB, inoculum 5 x 10^5 cfu/ml, 35 °C/18 hr
Method: as §3, §4, §5

[12] = test system: Providencia rettgeri S-121; experiment: Microbroth dilution (MHB) method, NCCLS M7-A2; assay type: cell-based; conditions: 35 °C/18 hr
Method: as §3, §4, §5

Sa 127M = experiment: Microbroth dilution (MHB) method, NCCLS M7-A2; assay type: cell-based, Staphylococcus aureus; conditions: inoculum 5 x 10^5 cfu/ml, 35 °C/18 hr
Method: as §3, §4, §5

Nc1c(F)c(N2C[C@@H](N)[C@@H](n3ccnn3)C2)c(F)c2c1c(=O)c(C(=O)O)cn2C1CC1 (relative stereo) [Example 18, 5-Amino-7-[cis-3-amino-4-(1,2,3-triazol-1-yl)-pyrrolidin-1-yl]-1-cyclopropyl-6,8-difluoro-1,4-dihydro-4-oxo-quinoline-3-carboxylic acid]
MIC [1]: 0.5 µg/mL (≈ 1.16 µM)

Nc1c(F)c(N2CC[C@H](n3ccnn3)C2)c(F)c2c1c(=O)c(C(=O)O)cn2C1CC1 [Example 12, 5-Amino-1-cyclopropyl-6,8-difluoro-7-[3S-(1,2,3-triazol-1-yl)-pyrrolidin-1-yl]-1,4-dihydro-4-oxo-quinoline-3-carboxylic acid]
MIC [1]: 0.008 µg/mL (≈ 0.0192 µM)
MIC [2]: 0.004 to 0.008 µg/mL (≈ 0.00961 to 0.0192 µM)
MIC [3]: 0.06 µg/mL (≈ 0.144 µM)
MIC [4]: 0.06 µg/mL (≈ 0.144 µM)
MIC [5]: 0.12 µg/mL (≈ 0.288 µM)
MIC (Bacteroides fagilis AN-2): 1 µg/mL (≈ 2.4 µM)
MIC [6]: 0.06 µg/mL (≈ 0.144 µM)
MIC [7]: 0.5 to 2 µg/mL (≈ 1.2 to 4.8 µM)

O=C(O)c1cn(-c2ccc(F)cc2)c2c(F)c(N3CCC(n4ccnn4)C3)c(F)cc2c1=O (stereo not shown) [Example 2, 6,8-Difluoro-1-(4-fluorophenyl)-7-[3-(1,2,3-triazol-1-yl)-pyrrolidin-1-yl]-1,4-dihydro-4-oxo-quinoline-3-carboxylic acid]
MIC [1]: ≤ 0.06 µg/mL

CCOC(=O)c1cn(C2CC2)c2nc(N3C[C@@H](N)[C@@H](n4ccnn4)C3)c(F)cc2c1=O (relative stereo) [Example 6, Ethyl 7-[cis-3-amino-4-(1,2,3-triazol-1-yl)pyrrolidin-1-yl] -1-cyclopropyl-6-fluoro-1,4-dihydro-4-oxo-1,8-naphthyridine-3-carboxylate]
MIC [1]: ≤ 0.03 µg/mL

CCOC(=O)c1cn(C2CC2)c2nc(N3CC[C@H](n4ccnn4)C3)c(F)cc2c1=O [Example 4, Ethyl 1-cyclopropyl-6-fluoro-7-[3(S)-(1,2,3-triazol-1-yl)pyrrolidin-1-yl]-1,4-dihydro-4-oxo-1,8-naphthyridine-3-carboxylate]
MIC [1]: ≤ 0.06 µg/mL

N[C@@H]1CN(c2c(F)cc3c(=O)c(C(=O)O)cn(C4CC4)c3c2F)C[C@@H]1n1ccnn1 (relative stereo) [Example 17, 7-[cis-3-Amino-4-(1,2,3-triazol-1-yl)-pyrrolidin-1-yl]-1-cyclopropyl-6,8-difluoro-1,4-dihydro-4-oxo-quinoline-3-carboxylic acid]
MIC [1]: 1 µg/mL (≈ 2.4 µM)

NC1CN(c2nc3c(cc2F)c(=O)c(C(=O)O)cn3C2CC2)CC1n1ccnn1 (stereo not drawn) [Example 7, 7-[cis-3-Amino-4-(1,2,3-triazol-1-yl)pyrrolidin-1-yl]-1-cyclopropyl-6-fluoro-1,4-dihdyro-4-oxo-1,8-naphthyridine-3-carboxylic acid hydrochloride]
MIC [1]: 0.008 µg/mL

O=C(O)c1cn(C2CC2)c2c(F)c(N3CCC(n4ccnn4)C3)c(F)c(O)c2c1=O (stereo not shown) [Example 50, 1-Cyclopropyl-5-hydroxy-6,8-difluoro-7-[-3-(1,2,3-triazol-1-yl)-pyrrolidin-1-yl]-1,4-dihydro-4-oxo-quinoline-3-carboxylic acid]
MIC ([8]; Klebsiella pneumoniae, S80, read-out: MIC): 1 µg/mL (≈ 2.4 µM)
MIC ([9]; Enterobacter cloacae, S130, Ecl S-130, inoculum 5 x 10^5 cfu/ml, read-out: MIC): 2 µg/mL (≈ 4.79 µM)
MIC ([10]; Staphylococcus aureus, S127, Sa S-127, inoculum 5 x 10^5 cfu/ml, read-out: MIC): 0.25 µg/mL (≈ 0.599 µM)
MIC (Eschericia coli S-63; read-out: MIC): 1 µg/mL (≈ 2.4 µM)
MIC ([11]; Pseudomonas aeruginosa, S67, read-out: MIC): 16 µg/mL (≈ 38.3 µM)
MIC ([12]; Providencia rettgeri, S121, Pr S-121, inoculum 5 x 10^5 cfu/ml, read-out: MIC): 0.06 µg/mL (≈ 0.144 µM)
MIC (Sa 127M; Staphylococcus aureus, read-out: MIC): 0.25 µg/mL (≈ 0.599 µM)

Norfloxacin - choline salt [MFLX-, reference compound]
MIC [8]: .25 µg/mL
MIC ([9]; Ecl S-130, inoculum 5 x 10^5 cfu/ml): .25 µg/mL
MIC ([10]; Sa S-127, inoculum 5 x 10^5 cfu/ml): 2 µg/mL
MIC (Eschericia coli S-63): .06 µg/mL
MIC [11]: 1 µg/mL
MIC ([12]; Pr S-121, inoculum 5 x 10^5 cfu/ml): .12 µg/mL
MIC (Sa 127M): 16 µg/mL
